In patent US11407742B2 (THE KITASATO INSTITUTE, priority 2017, dated 2022) one finds MIC and Solubility in solvent data, which are given here for 8 molecules.

Data set [1] concerns Mycobacterium avium JCM 15430 strain. Description: Antibacterial activity against Mycobacterium avium complex, broth microdilution MIC (Test II-1). The format is cell-based. As to conditions: JCM15430, 37° C. for 120 hours, MTT, minimum concentration inhibiting growth of 90% or more. As to the method: (§1) 6 mL of 7H9 liquid medium (Middlebrook 7H9 broth 0.5% (DIFCO), bovine serum albumin 5.0% (SIGMA), glucose 2.0% (Wako Pure Chemical Industries, Ltd.) and sodium chloride 0.85% (Kanto Chemical Co., Inc.)) containing 0.05% Tween80 (Wako Pure Chemical Industries, Ltd.) was put in a cell culturing flask T25 (Corning incorporated). To this flask was added 200 μL of a glycerol stored bacterial suspension of Mycobacterium avium (JCM15430, given by Institute of Physical and Chemical Research, Microbe Division) or 120 μL of a glycerol stored bacterial suspension of Mycobacterium intracellulare (JCM6384, given by Institute of Physical and Chemical Research, Microbe Division). The Mycobacterium avium was statically cultured at 37° C. for 96 hours, and the Mycobacterium intracellulare was statically cultured at 37° C. for 72 hours. The cultured bacterial suspension was diluted with the medium by 200 times for the Mycobacterium avium and by 600 times for the Mycobacterium intracellulare to prepare bacterial suspensions for inoculation (equivalent to 4×10^6 CFU/mL). The minimum inhibitory concentration (MIC) of each bacterial suspension was measured by carrying out a broth microdilution method in accordance with the following procedure. To a 96-well microplate, a two-stage dilution series (a final concentration of 0.001 to 50 μg/mL) of a test compound sample prepared beforehand was dispensed at 5 μL/well. Next, the bacterial suspension for inoculation was added at 95 μL/well. The culture solution in the well was mixed, and the resulting mixture cultured at 37° C. for 120 hours. After the culture, MTT reagent (SIGMA) was added at 5 μL/well, and the resulting mixture was cultured at 37° C. for 16 hours. Thereafter, a cytolytic buffer (dimethylformamide: 40.0% (nacalai tesque), acetic acid: 2.0% (Kanto Chemical Co., Inc.), sodium dodecyl sulfate: 20.0% (Wako Pure Chemical Industries, Ltd.), hydrochloric acid: 0.03 N (Kanto Chemical Co., Inc.)) at 95 μL/well, and the resulting mixture was shaken for 1 hour. For the culture solution in each well, the absorbance was measured at 570 nm, the growth inhibition rate was then calculated, and the minimum concentration indicative of inhibition of growth of 90% or more of bacteria was defined as a MIC value. Compounds 40551-F, -D, -G, -H, -I, -K and -L were used as test compounds, and ethambutol which is a known drug that is used for treatment of MAC infection was used as a comparative compound.
In general terms: In broth dilution the organism is exposed to a series of concentrations in liquid medium.

Data set [2] deals with Mycobacterium intracellulare JCM 6384 strain. The data set is described as above. As to conditions: JCM6384, 37° C. for 120 hours, MTT, minimum concentration inhibiting growth of 90% or more. The format is cell-based. As to the method:
as §1

In data set [3] the test system is Mycobacterium bovis BCG Pasteur strain. Description: microbe, parasite or virus in culture. The format is cell-based. Particulars: Mycobacterium tuberculosis variant bovis BCG.
The subject of data set [4] is Mycobacterium smegmatis MC^2155 strain. Description: Antibacterial activity against other nontuberculous mycobacteria, broth microdilution MIC (Test II-2). As to conditions: Mycolicibacterium smegmatis, 37° C. for 30 hours, growth observed with the naked eye. In kind it is cell-based. How it is done: as §1
A test against Mycobacterium smegmatis as other nontuberculous mycobacteria was conducted in accordance with the following procedure. 6 mL of 7H9 liquid medium containing 0.5% Tween80 (Wako Pure Chemical Industries, Ltd.) was put in a cell culturing flask T25 (Corning incorporated). In this flask, a glycelol stored bacterial suspension of Mycobacterium smegmatis (MC^2155, acquired from American Type Culture Collection) was inoculated with one platinum loop, and statically cultured at 37° C. for 30 hours. The cultured bacterial suspension was then diluted by 200 times with the medium to prepare a bacterial suspension for inoculation (equivalent to 8×10^6 CFU/mL). The MIC of the bacterial suspension was measured by carrying out a broth microdilution method in the same procedure as in Test II-1. The bacterial suspension was cultured under conditions of 37° C. for 30 hours, and the MIC value was determined by observing growth of bacteria with the naked eye.

Data set [5] can be described thus: Solubility in solvent. In kind it is physicochemical. Particulars: organic solvents (methanol, DMSO).

Structures are written as SMILES. Converted amounts (≈) assume the structure as drawn.

Regarding `CC(C)CC(=O)Nc1ccn(C2CCC(OC3OC(C)C(N(C)C)C(O)C3O)C(C)O2)c(=O)n1` (stereo not drawn) [Compound 40551-K], the MIC in data set [1] came to 25 µg/mL (≈ 51.8 µM); in data set [2], 6.25 µg/mL (≈ 13 µM); in data set [3], 6.25 µg/mL (≈ 13 µM); in data set [4] it was 25 µg/mL (≈ 51.8 µM). The Solubility in solvent entry in data set [5] is recorded as “soluble in methanol, DMSO, etc”.

Regarding `CC[C@@H](CO)NCCN[C@@H](CC)CO` [Ethambutol, reference compound], the MIC in data set [1] is 12.5 µg/mL (≈ 61.2 µM); in data set [2], 3.12 µg/mL (≈ 15.3 µM); in data set [3], 1.56 µg/mL (≈ 7.64 µM); in data set [4], 0.78 µg/mL (≈ 3.82 µM).

On to `C/C=C(\C)C(=O)Nc1ccn(C2CCC(OC3OC(C)C(N(C)C)C(O)C3O)C(C)O2)c(=O)n1` (stereo not drawn) [Compound 40551-I, (E)-N-(1-(5-((5-(dimethylamino)-3,4-dihydroxy-6-methyltetrahydro-2H-pyran-2-yl)oxy)-6-methyltetrahydro-2H-pyran-2-yl)-2-oxo-1,2-dihydropyrimidin-4-yl)-2-methylbuta-2-enamide], for which the MIC is 25 µg/mL (≈ 52 µM) in data set [2] and 6.25 µg/mL (≈ 13 µM) in data set [3]. In data set [5], the Solubility in solvent result is on record as “soluble in methanol, DMSO, etc”.

On to `CC(C)C(=O)Nc1ccc(C(=O)Nc2ccn(C3CCC(OC4OC(C)C(N(C)C)C(O)C4O)C(C)O3)c(=O)n2)cc1` (stereo not drawn) [Compound 40551-D], for which the MIC amounted to 12.5 µg/mL (≈ 21.3 µM) in data set [1], 12.5 µg/mL (≈ 21.3 µM) in data set [2] and 6.25 µg/mL (≈ 10.6 µM) in data set [3]. The Solubility in solvent entry in data set [5] is given as “soluble in methanol, DMSO, etc”.

Consider `CCC(C)/C=C/C(=O)Nc1ccn(C2CCC(OC3OC(C)C(N(C)C)C(O)C3O)C(C)O2)c(=O)n1` (stereo not drawn) [Compound 40551-G], for which the MIC in data set [1] was 6.25 µg/mL (≈ 12.3 µM); in data set [2], 3.12 µg/mL (≈ 6.13 µM); in data set [3], 6.25 µg/mL (≈ 12.3 µM); in data set [4], 12.5 µg/mL (≈ 24.6 µM). The Solubility in solvent entry in data set [5] is on record as “soluble in methanol, DMSO, etc”.

As for `CC1OC(n2ccc(NC(=O)c3ccc(N4C(=O)C(C)(CO)NC4(C)C)cc3)nc2=O)CCC1OC1OC(C)C(N(C)C)C(O)C1O` (stereo not drawn) [Compound 40551-H], the MIC in data set [1] stood at 12.5 µg/mL (≈ 19 µM); in data set [2] it was 1.56 µg/mL (≈ 2.37 µM); in data set [3] it was 0.39 µg/mL (≈ 0.592 µM); in data set [4], 1.56 µg/mL (≈ 2.37 µM). In addition, the Solubility in solvent result in data set [5] is reported as “soluble in methanol, DMSO, etc”.

On to `CC(C)=CC(=O)Nc1ccn(C2CCC(OC3OC(C)C(N(C)C)C(O)C3O)C(C)O2)c(=O)n1` (stereo not drawn) [Compound 40551-F, N-(1-(5-((5-(dimethylamino)-3,4-dihydroxy-6-methyltetrahydro-2H-pyran-2-yl)oxy)-6-methyltetrahydro-2H-pyran-2-yl)-2-oxo-1,2-dihydropyrimidine-4-yl)-3-methylbuta-2-enamide], for which the MIC in data set [1] was 0.78 µg/mL (≈ 1.62 µM); in data set [2] it was 0.39 µg/mL (≈ 0.812 µM); in data set [3], 1.56 µg/mL (≈ 3.25 µM); in data set [4], 3.12 µg/mL (≈ 6.49 µM). In addition, the Solubility in solvent entry in data set [5] is on record as “soluble in methanol, DMSO, etc”.

As to `CC(C)/C=C/C(=O)Nc1ccn(C2CCC(OC3OC(C)C(N(C)C)C(O)C3O)C(C)O2)c(=O)n1` (stereo not drawn) [Compound 40551-L, (E)-N-(1-(5-((5-(dimethylamino)-3,4-dihydroxy-6-methyltetrahydro-2H-pyran-2-yl)oxy)-6-methyltetrahydro-2H-pyran-2-yl)-2-oxo-1,2-dihydropyrimidin-4-yl)-4-methylpenta-2-enamide], the MIC in data set [1] is 3.12 µg/mL (≈ 6.31 µM); in data set [2], 0.78 µg/mL (≈ 1.58 µM); in data set [3], 1.56 µg/mL (≈ 3.15 µM); in data set [4], 3.12 µg/mL (≈ 6.31 µM). In addition, the Solubility in solvent entry in data set [5] was “soluble in methanol, DMSO, etc”.
